These are literature values, as cited in patent US10987332B2, “Sprayable aqueous composition comprising glyceryl trinitrate” (G. POHL-BOSKAMP GMBH & CO. KG, priority 2013, dated 2021).

Data set [1] has as its system Sprague-Dawley rats. The following applies: RIP (Modules 2-4).
The test system of data set [2] is Sprague-Dawley rats. The following applies: rat, in vivo.

As for `O=[N+]([O-])OCC(CO[N+](=O)[O-])O[N+](=O)[O-]` [NTG, nitroglycerin], the solubility in water entry is recorded as “about 1 mg/ml”.
For the compound `O=[N+]([O-])O[C@H]1CO[C@H]2[C@@H]1OC[C@H]2O[N+](=O)[O-]` [ISDN, isosorbide dinitrate], in the data set on Sprague-Dawley rats [1], the VPB-Score was 4.57. In addition, in the data set on Sprague-Dawley rats [2], the Infarct size is 7.59±4.38%.
